Values quoted from earlier work, collected in patent US9693981B2 (INTEC PHARMA LTD., priority 2008, dated 2017).

Tests used:
[1] = high-fat/heavy meal compared to the fasted state, healthy adults
[2] = according to the USP 30

CCN(C(C)=O)c1cccc(-c2ccnc3c(C#N)cnn23)c1 [Zaleplon]
AUC [1]: not significantly affected | delay of Tmax [1]: approximately 2 hours | reduction of Cmax [1]: approximately 35% | solubility [2]: very slightly soluble
